Results published in patent EP4105215A1, “CO-CRYSTAL OF APIXABAN WITH A CARBOXYLIC ACID” (University of Limerick, priority 2021, dated 2022).

What was measured:
[1] = single 10 mg dose; cited from earlier work
[2] = Dissolution / solubility in PBS 6.8 analysed by HPLC; assay type: physicochemical; details: PBS 6.8 at 37°C, triplicate
Procedure: 25 mg equivalent of APX was sieved to 75-100µm using standard-mesh sieve and the resulting slurry was added to 500 mL phosphate buffer solution (PBS) 6.8 at 37°C stirring at 100 rpm. 1mL aliquots were taken at 1 3, 5, 10, 15, 30, 60, 120, 240, 480, 720 and 1440 minutes. Each aliquot filtered through a 0.45 µm Whattmann syringe filter. 500 µL of filtered aliquot and 500 µL of methanol were pipetted into a vial and injected to HPLC. All dissolution experiments for APX and cocrystals were carried in triplicates.
The dissolution aliquots were analysed using a Shimadzu (LC-20A) HPLC instrument with a Gemini® C18 (250 x 4.6 x 5 µm) column. The wavelength was set to 235nm with an injection volume of 10 µL and a flow rate of 1 mL/min with the oven set at 40°C.
Physicochemical properties such as PBS 6.8 solubility were analysed by high performance liquid chromatography (HPLC). […] Table 4: Solubility of APX and respective cocrystals in PBS 6.8 at 37°C

- Acute, T= 60 mins Conc ([2]; 60 mins): 0.0241 mg/mL
- Chronic, T= 720mins Conc ([2]; 720 mins): 0.0303 mg/mL
SMILES: COc1ccc(-n2nc(C(N)=O)c3c2C(=O)N(c2ccc(N4CCCCC4=O)cc2)CC3)cc1 [APX, 1-(4-methoxyphenyl)-7-oxo-6-(4-(2-oxopiperidin-1-yl)phenyl)-4,5,6,7-tetrahydro-1H-pyrazolo[3,4-c]pyridine-3-carboxamide]
- oral bioavailability [1]: about 50%
